Source: patent publication US20210244728A1, “Method of treating peripheral neuropathy” (Chemedest Ltd., priority 2012, published 2021)

Legend:
[1] = test system: spinal nerve-ligated rats; experiment: Von Frey test in Chung model (spinal nerve ligation) of neuropathic pain; assay type: in vivo; details: for Signs of sedation or toxicity: during pretreatment or testing
Excerpt: The study was designed to evaluate the analgesic efficacy of test compounds in the rat Chung model of neuropathic pain.
Male Sprague Dawley rats (100-125 g) from Harlan (Indianapolis, Ind.) were used in the study. Upon receipt, rats were assigned unique identification numbers and were group housed with 3 rats per cage in polycarbonate cages with micro-isolator filter tops. All rats were examined, handled, and weighed prior to initiation of the study to assure adequate health and suitability. During the course of the study, 12/12 light/dark cycles were maintained, with lights on at 7:00 am EST. The room temperature was maintained between 20 and 23° C. with a relative humidity maintained around 50%. Chow and water were provided ad libitum for the duration of the study.
Reference compound: Gabapentin (100 mg/kg; TRC, Lot No. 1-SWM-154-1) was dissolved in saline and administered acutely on test day (day 8 or 12) 1 hour prior to testing, at a dose volume of 1 ml/kg, p.o.
Test compounds: CHM-65 (5, 15 and 25 mg/kg, Q.D., Lot n/a) was dissolved in sterile injectable saline and administered subcutaneously on days 1, 3, 5 and 8 with the first administration (day 1) occurring 1 hour post-op. On day 8, compound was administered 1 hour prior to testing. The dose volume was 3 ml/kg.
CHM-36 (20 mg/kg, Q.D., Lot n/a) was dissolved in sterile injectable saline and administered subcutaneously on days 1, 3, 5 and 8 with the first administration (day 1) occurring 1 hour post-op. On day 8, compound was administered 1 hour prior to testing. The dose volume was 5 ml/kg.
Artemin (CHMB-1) (0.5 mg/kg, Q.D., Lot n/a) was administered subcutaneously on days 1, 3, 5, 8, 10 and 12 with the first administration (day 1) occurring 1 hour post-op. On day 12, compound was administered 1 hour prior to testing. The dose volume was 0.5 ml/kg.
Under general anesthesia with continuous inhalation of isoflurane, surgery was performed with aseptic procedures in surgery unit. Sterile ophthalmic ointment was used to lubricate the eyes. Animals were observed continuously for the level of anesthesia, testing for the animal's reflex response to tail or paw pinch and closely monitoring the animal's breathing. A heating pad was used to maintain body temperature at 37° C. while the animals recovered from anesthesia. The skin at the area of the lower lumber and sacral level of the rat was shaved and disinfected with betadine and alcohol. A left longitudinal incision at the level next to the vertebral column was made and the left paraspinal muscles were separated. The transverse process of L6 was removed and nearby connective tissue cleaned to expose L5 and L6 spinal nerves. After the nerves were isolated and clearly visualized, 4-0 silk threads were used to ligate the left L5. The muscles were sutured with 4-0 silk threads and the wound closed by staples. All rats received an analgesic (buprenorphine, 0.05 mg/kg, s.c.) immediately before and 6 hours after surgery. Each rat was monitored until awake and moving freely around the recovery chamber. Animals were then single-housed for the duration of the study. Rats began their chronic-treatment regimen (all test groups except gabapentin) 1 hour post-op on surgery day.
Withdrawal from a mechanical stimulus was measured by applying von Frey (VF) filaments of ascending bending force to the plantar surface of the hind paws (ipsilateral and contralateral). A positive response was defined as withdrawal from the von Frey filament. […]

[2] = test system: sciatic-ligated rats; experiment: Von Frey test in Bennett model (chronic constrictive injury of the sciatic nerve) of neuropathic pain; assay type: in vivo, Male Sprague Dawley rats
Excerpt: The study was designed to evaluate the analgesic efficacy of compound XV (CHM-65) in the Bennett model of neuropathic pain.
Male Sprague Dawley rats (100-125 g) from Harlan (Indianapolis, Ind.) were used in the study. Upon receipt, rats were assigned unique identification numbers and were group housed with 3 rats per cage in polycarbonate cages with micro-isolator filter tops. All rats were examined, handled, and weighed prior to initiation of the study to assure adequate health and suitability. During the course of the study, 12/12 light/dark cycles were maintained, with lights on at 7:00 am EST. The room temperature was maintained between 20 and 23° C. with a relative humidity maintained around 50%. Chow and water were provided ad libitum for the duration of the study. […]
This surgery was performed according to Bennett and Xie (1988). […] Each rat was monitored until awake and moving freely around the recovery chamber. […]
Withdrawal from a mechanical stimulus was measured by applying von Frey (VF) filaments of ascending bending force to the plantar surface of the hind paws (ipsilateral and contralateral). […]
Data were analyzed by one-way analysis of variance (ANOVA) followed by Fisher PLSD post-hoc comparisons. […]

[3] = test system: animals; details: systemic administration in animals; cited from earlier work
[4] = test system: rats with SNL (spinal nerve ligation); details: repeated injection; cited from earlier work
[5] = test system: peripheral neuron populations (dorsal root, trigeminal, nodose, superior cervical ganglia) and cultured fetal ventral mesencephalic DA neurons; details: cited from earlier work

Row | Compound | Signs of sedation or toxicity ([1]; CHM-36 study) | Signs of sedation or toxicity ([1]; artemin study) | ipsilateral paw withdrawal threshold compared to vehicle ([1]; gabapentin 100 mg/kg p.o., acute on test day, 1 hour prior to testing, CHM-36 study, FIG. 5) | ipsilateral paw withdrawal threshold compared to vehicle ([1]; gabapentin 100 mg/kg p.o., acute on test day, 1 hour prior to testing, artemin study, FIG. 7) | Signs of sedation or toxicity ([2]; during pretreatment or testing, Bennett model study) | ipsilateral paw withdrawal threshold compared to vehicle ([2]; gabapentin 100 mg/kg p.o., acute on day 12, 1 hour prior to testing, FIG. 3) | restoration of nociceptive and sensorimotor functions [3] | ipsilateral paw withdrawal threshold compared to vehicle ([1]; 0.5 mg/kg s.c. on days 1, 3, 5, 8, 10 and 12, tested day 12, 1 hour after administration, FIG. 7) | behavioral responses to light touch and noxious thermal stimuli [4] | behavioral signs of toxicity [4] | survival of peripheral neuron populations and cultured fetal ventral mesencephalic DA neurons [5]
1 | NCC1(CC(=O)O)CCCCC1 [gabapentin, Gabapentin] | not observed | not observed | significantly increased | significantly increased | not observed | significantly increased | – | – | – | – | –
2 | CHMB-1: GDNF family ligand artemin (ARTN), neurotrophic factor signalling through GFR α 3/RET | – | – | – | – | – | – | essentially complete and persistent restoration | significantly increased | dose-dependent normalization | without producing behavioral signs of toxicity | promote the survival
